Laboratory results published in patent US12171766B2, “Methods of treating patients suffering from brain injury and methods of increasing the value of the extended Glasgow Outcome Scale of patients suffering from brain injury” (VERINOS OPERATIONS GMBH, priority 2021, dated 2024).

What was measured:
[1] = NOSTRA phase III trial: safety and adverse event analyses; type: in vivo
Procedure: Safety analyses was performed using standard descriptive methods.
The total number of treatment-emergent adverse events (TEAE) and the total number of patients with TEAEs, the total number of TEAEs related to the study drug (certain, probable, possible), the total number of patients with TEAEs related to the study drug, the total number of TEAEs and the total number of patients with serious TEAEs, the total number of patients with TEAEs leading to discontinuation of study treatment and the total number of patients with TEAEs leading to death were summarised by treatment arm.

[2] = test system: Moderate and Severe Traumatic Brain Injury; settings: cited from earlier work
animal models of TBI = settings: mice, Terpolilli et al. 2009; cited from earlier work
[3] = NOSTRA phase III trial: exposure control (pharmacokinetics), samples after end of infusion and 12 hours after end of infusion; type: in vivo, human; settings: exposure control samples; no utilizable values for parent
Procedure: An exposure control was performed with samples collected after end of infusion and 12 hours after end of infusion. Due to the high sensibility of Ronopterin to oxidation, no utilizable values could be obtained for Ronopterin and, therefore, the first metabolite, 4-amino-dihydrobiopterin, was used as a surrogate. The mean absolute concentration for the first metabolite of Ronopterin was 1071 ng/mL at the end of the infusion and 476 ng/mL 12 hours later (56% elimination). The mean absolute value for the second Ronopterin metabolite was 52 ng/mL at the end of the infusion and 37 ng/mL 12 hours after end of infusion.

[4] = may be due to over-reporting of some centres

Structure (SMILES): CC(O)C(O)C1CNc2nc(N)nc(N)c2N1 [Ronopterin, 4-Amino-(6R,S)-5,6,7,8-tetrahydro-L-biopterin]
- number of renal AEs ([1]; Ronopterin:placebo 11:3): 11
- tolerability of study treatment ([1]; TBI patients, 17 mg/kg over 48 hours): well-tolerated
- number of related AE/SAEs ([1]; between the groups (Ronopterin, placebo)): low and comparable
- number of adverse events (AEs) and serious adverse events (SAEs) compared to placebo ([1]; in vivo): slightly higher
- ICP increased, number of patients [1, 4]: 27 patients
- ICP increased, proportion of patients [1, 4]: 23.9%
- effect of infusion during the initial 12 hours after TBI ([2]; Phase IIa trial [Stover]): benefits
- effect in phase II clinical trial ([2]; Stover et al. 2014 (NOSTRA phase IIa)): beneficial
- effect in animal models of TBI (animal models of TBI): beneficial
- sensibility to oxidation [3]: high
